Assay results reported in US11492335B2, “Aryl or heteroaryl triazolone derivatives or salts thereof, or pharmaceutical compositions comprising the same” (YUHAN CORPORATION, priority 2018, dated 2022).
Counter-ions that a name gives are not always drawn.

Columns and labels:
Format in all cases: biochemical
[1] = molecular target: T1, recombinant human DAO (diamine oxidase) (Homo sapiens, UniProt P19801); test: Activity on recombinant human DAO, Amplex Red method, 1 mM putrescine substrate; conditions: recombinant human DAO, 1 mM putrescine; * = between 10 and 100 nM, ** = between 300 and 1000 nM; read-out: Inhibitory Activity (IC50, nM) DAO
T1 construct: purchased R&D systems
T1 sequence (P19801 20-751): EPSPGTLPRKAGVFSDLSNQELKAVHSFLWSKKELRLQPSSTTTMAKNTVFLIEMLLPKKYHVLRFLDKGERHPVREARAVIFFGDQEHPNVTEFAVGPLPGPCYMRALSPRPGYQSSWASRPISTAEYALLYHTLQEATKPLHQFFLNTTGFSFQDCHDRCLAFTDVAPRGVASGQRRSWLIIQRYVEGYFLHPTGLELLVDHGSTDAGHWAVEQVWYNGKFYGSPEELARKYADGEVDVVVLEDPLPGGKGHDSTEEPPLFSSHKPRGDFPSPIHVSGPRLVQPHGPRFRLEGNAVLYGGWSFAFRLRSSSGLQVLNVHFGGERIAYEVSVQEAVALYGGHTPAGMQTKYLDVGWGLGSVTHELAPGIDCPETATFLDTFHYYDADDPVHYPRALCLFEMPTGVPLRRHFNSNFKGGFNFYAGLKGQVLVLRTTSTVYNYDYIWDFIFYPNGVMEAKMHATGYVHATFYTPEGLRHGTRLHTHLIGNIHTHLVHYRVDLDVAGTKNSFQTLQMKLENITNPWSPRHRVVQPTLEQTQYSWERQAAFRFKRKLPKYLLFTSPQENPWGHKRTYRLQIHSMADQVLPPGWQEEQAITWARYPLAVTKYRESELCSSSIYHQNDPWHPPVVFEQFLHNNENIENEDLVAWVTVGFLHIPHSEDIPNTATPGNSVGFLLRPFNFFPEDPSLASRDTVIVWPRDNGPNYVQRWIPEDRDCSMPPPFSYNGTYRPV
Method in brief: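 Inhibition of recombinant human DAO (diamine oxidase, R&D systems) was assessed with the Amplex Red Hydrogen Peroxide Assay Kit. Hydrogen peroxide produced from 1 mM putrescine was detected through an HRP-coupled reaction that converts Amplex Red into fluorescent resorufin, read at 544 nm excitation and 590 nm emission. IC50 values came from four-parameter logistic fits in GraphPad Prism.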

[2] = molecular target: T2, recombinant human MAO-A (monoamine oxidase-A) (Homo sapiens, UniProt P21397); test: Activity on recombinant human MAO-A, Amplex Red method, 0.5 mM tyramine substrate; conditions: 0.5 mM tyramine, read-out: Inhibitory Activity (IC50, nM) MAO-A
T2 construct: purchased Sigma-Aldrich
T2 sequence (P21397 1-527): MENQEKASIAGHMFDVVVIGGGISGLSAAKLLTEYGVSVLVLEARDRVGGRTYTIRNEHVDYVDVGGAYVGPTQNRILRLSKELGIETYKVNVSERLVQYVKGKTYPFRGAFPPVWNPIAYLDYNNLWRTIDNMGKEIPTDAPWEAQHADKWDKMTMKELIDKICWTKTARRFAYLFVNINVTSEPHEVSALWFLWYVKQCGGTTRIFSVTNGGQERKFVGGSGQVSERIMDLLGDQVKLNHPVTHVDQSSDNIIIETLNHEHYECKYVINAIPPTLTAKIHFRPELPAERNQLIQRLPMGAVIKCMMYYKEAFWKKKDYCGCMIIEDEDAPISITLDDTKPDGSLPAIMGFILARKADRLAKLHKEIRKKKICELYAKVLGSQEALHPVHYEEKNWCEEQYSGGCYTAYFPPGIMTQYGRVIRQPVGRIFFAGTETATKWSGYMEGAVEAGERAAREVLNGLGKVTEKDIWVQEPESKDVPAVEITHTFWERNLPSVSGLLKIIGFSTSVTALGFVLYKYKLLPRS
Method in brief: (§1)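 Enzyme preincubated with compound 30 min at 37 °C in 50 mM sodium phosphate pH 7.4, final DMSO below 1%. Substrate was 0.5 mM tyramine for MAO-A and 1 mM benzylamine for MAO-B, with 200 uM Amplex Red and 1 U/mL HRP. H2O2-coupled resorufin fluorescence (ex 544/em 590) followed over 1–2 h; 8-point 4-parameter IC50.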

[3] = molecular target: T3, recombinant human MAO-B (monoamine oxidase-B) (Homo sapiens, UniProt P27338); test: Activity on recombinant human MAO-B, Amplex Red method, 1 mM benzylamine substrate; conditions: 1 mM benzylamine, read-out: Inhibitory Activity (IC50, nM) MAO-B
T3 construct: purchased Sigma-Aldrich
T3 sequence (P27338 1-520): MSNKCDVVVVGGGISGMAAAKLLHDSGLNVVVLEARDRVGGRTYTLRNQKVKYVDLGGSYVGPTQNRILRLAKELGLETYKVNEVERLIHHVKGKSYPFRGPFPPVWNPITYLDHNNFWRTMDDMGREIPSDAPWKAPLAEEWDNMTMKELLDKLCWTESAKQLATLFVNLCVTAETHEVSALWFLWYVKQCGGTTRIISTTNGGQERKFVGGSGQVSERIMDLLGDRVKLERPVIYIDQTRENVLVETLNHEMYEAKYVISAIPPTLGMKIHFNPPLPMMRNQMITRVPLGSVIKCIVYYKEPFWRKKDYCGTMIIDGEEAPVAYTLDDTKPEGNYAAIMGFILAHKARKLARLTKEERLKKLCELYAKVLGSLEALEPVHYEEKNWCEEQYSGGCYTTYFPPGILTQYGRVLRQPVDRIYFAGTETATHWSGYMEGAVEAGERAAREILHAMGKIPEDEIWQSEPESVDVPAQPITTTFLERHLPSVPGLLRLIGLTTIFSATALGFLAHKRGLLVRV
Method in brief: as §1

[4] = molecular target: T4, recombinant human VAP-1 (Homo sapiens, UniProt Q16853); test: Activity on recombinant human VAP-1, Amplex Red HRP-coupled hydrogen peroxide assay, benzylamine substrate; conditions: recombinant human VAP-1, benzylamine substrate, 30 min preincubation at 37° C.; read-out: Inhibitory Activity (IC50, nM) human VAP-1
T4 construct: purchased R&D systems
T4 sequence (Q16853 1-763): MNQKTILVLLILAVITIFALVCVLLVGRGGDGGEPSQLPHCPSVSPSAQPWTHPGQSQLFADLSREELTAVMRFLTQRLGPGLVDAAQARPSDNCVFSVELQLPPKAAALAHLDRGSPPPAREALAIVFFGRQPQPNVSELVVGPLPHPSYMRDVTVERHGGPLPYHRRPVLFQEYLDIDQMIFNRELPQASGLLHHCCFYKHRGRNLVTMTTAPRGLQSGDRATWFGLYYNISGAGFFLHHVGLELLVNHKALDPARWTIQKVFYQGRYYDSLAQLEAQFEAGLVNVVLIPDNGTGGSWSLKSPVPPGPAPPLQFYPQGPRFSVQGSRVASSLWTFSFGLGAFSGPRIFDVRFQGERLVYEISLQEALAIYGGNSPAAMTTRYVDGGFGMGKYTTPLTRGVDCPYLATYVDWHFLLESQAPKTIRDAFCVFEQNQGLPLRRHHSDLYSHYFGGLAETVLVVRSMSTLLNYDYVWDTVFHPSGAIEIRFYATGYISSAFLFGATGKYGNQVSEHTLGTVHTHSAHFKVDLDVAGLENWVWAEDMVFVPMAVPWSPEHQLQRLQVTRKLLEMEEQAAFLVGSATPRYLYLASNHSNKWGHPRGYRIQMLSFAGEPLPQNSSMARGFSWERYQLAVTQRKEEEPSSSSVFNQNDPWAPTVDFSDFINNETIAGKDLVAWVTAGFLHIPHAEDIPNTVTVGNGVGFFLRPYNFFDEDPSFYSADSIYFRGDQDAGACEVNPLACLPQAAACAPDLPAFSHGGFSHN
Method in brief: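 Enzyme in 50 mM sodium phosphate pH 7.4 preincubated with compound 30 min at 37 °C, then 1 mM benzylamine, 200 µM Amplex Red and 1 U/mL HRP added. H2O2-derived resorufin fluorescence (ex 544/em 590 nm) followed over 1–2 h; signal-rate decrease versus DMSO control, 8-point curve, four-parameter logistic IC50.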

Row | Compound | IC50 [1] [nM] | IC50 [2] [nM] | IC50 [3] [nM] | IC50 [4] [nM]
1 | NC/C(=C\F)Cn1ncn(-c2cccc(-c3cccc(-c4ncon4)c3)c2)c1=O [Example 62, 2-[(2E)-2-(aminomethyl)-3-fluoroprop-2-en-1-yl]-4-[3′-(1,2,4-oxadiazol-3-yl)biphenyl-3-yl]-2,4-dihydro-3H-1,2,4-triazol-3-one] | < 100 | > 100000 | 117 | 0.53
2 | NC/C(=C\F)Cn1ncn(-c2cccc(-c3ccc(-c4noc(C5CC5)n4)cc3)c2)c1=O [Example 63, 2-[(2E)-2-(aminomethyl)-3-fluoroprop-2-en-1-yl]-4-[4′-(5-cyclopropyl-1,2,4-oxadiazol-3-yl)biphenyl-3-yl]-2,4-dihydro-3H-1,2,4-triazol-3-one hydrochloride] | < 30 | > 100000 | > 10000 | 1
3 | CC(C)c1nc(-c2ccc(-c3cccc(-n4cnn(C/C(=C/F)CN)c4=O)c3)cc2)no1 [Example 64, 2-[(2E)-2-(aminomethyl)-3-fluoroprop-2-en-1-yl]-4-{4′-[5-(propan-2-yl)-1,2,4-oxadiazol-3-yl]biphenyl-3-yl}-2,4-dihydro-3H-1,2,4-triazol-3-one hydrochloride] | < 30 | 6030 | > 10000 | 3.2
4 | CS(=O)(=O)c1ccc(-c2ccc(-c3cccc(-n4cnn(C/C(=C/F)CN)c4=O)c3)cc2)cc1 [Example 66, 2-[(2E)-2-(aminomethyl)-3-fluoroprop-2-en-1-yl]-4-[4″-(methylsulfonyl)-1,1′:4′,1″-terphenyl-3-yl]-2,4-dihydro-3H-1,2,4-triazol-3-one hydrochloride] | 3.9 | > 100000 | > 10000 | 0.66
5 | CS(=O)(=O)c1ccc(-c2cccc(-c3cccc(-n4cnn(C/C(=C/F)CN)c4=O)c3)c2)cc1 [Example 67, 2-[(2E)-2-(aminomethyl)-3-fluoroprop-2-en-1-yl]-4-[4″-(methylsulfonyl)-1,1′:3′,1″-terphenyl-3-yl]-2,4-dihydro-3H-1,2,4-triazol-3-one] | 11 | > 100000 | > 10000 | 0.77
6 | CC(=O)Nc1ccc(-c2ccc(-c3cccc(-n4cnn(C/C(=C/F)CN)c4=O)c3)cc2)cc1 [Example 68, N-(3″-{1-[(2E)-2-(aminomethyl)-3-fluoroprop-2-en-1-yl]-5-oxo-1,5-dihydro-4H-1,2,4-triazol-4-yl}-1,1′:4′,1″-terphenyl-4-yl)acetamide hydrochloride] | 2.7 | 37800 | > 10000 | 0.82
7 | NC/C(=C\F)Cn1ncn(-c2cccc(-c3ccc(-c4ccc5c(c4)OCO5)cc3)c2)c1=O [Example 70, 2-[(2E)-2-(aminomethyl)-3-fluoroprop-2-en-1-yl]-4-[4′-(1,3-benzodioxol-5-yl)biphenyl-3-yl]-2,4-dihydro-3H-1,2,4-triazol-3-one hydrochloride] | < 30 | > 100000 | 1620 | 0.63

Second part, the compound after the results:

Row | IC50 [1] [nM] | IC50 [2] [nM] | IC50 [3] [nM] | IC50 [4] [nM] | Compound
8 | < 30 | > 100000 | > 10000 | 0.93 | CC(C)c1nc(-c2cccc(-c3cccc(-n4cnn(C/C(=C/F)CN)c4=O)c3)c2)no1 [Example 65, 2-[(2E)-2-(aminomethyl)-3-fluoroprop-2-en-1-yl]-4-{3′-[5-(propan-2-yl)-1,2,4-oxadiazol-3-yl]biphenyl-3-yl}-2,4-dihydro-3H-1,2,4-triazol-3-one hydrochloride]
9 | 11 | 4910 | 1100 | 0.63 | CC(=O)Nc1ccc(-c2cccc(-c3cccc(-n4cnn(C/C(=C/F)CN)c4=O)c3)c2)cc1 [Example 69, N-(3″-{1-[(2E)-2-(aminomethyl)-3-fluoroprop-2-en-1-yl]-5-oxo-1,5-dihydro-4H-1,2,4-triazol-4-yl}-1,1′:3′,1″-terphenyl-4-yl)acetamide hydrochloride]
10 | < 30 | 17300 | 240 | 1 | NC/C(=C\F)Cn1ncn(-c2cccc(-c3cccc(-c4ccc5c(c4)OCO5)c3)c2)c1=O [Example 71, 2-[(2E)-2-(aminomethyl)-3-fluoroprop-2-en-1-yl]-4-[3′-(1,3-benzodioxol-5-yl)biphenyl-3-yl]-2,4-dihydro-3H-1,2,4-triazol-3-one hydrochloride]
11 | 59 | 4890 | 1460 | 1.1 | CC(=O)N1CCN(c2ccc(-c3cccc(-n4cnn(C/C(=C/F)CN)c4=O)c3)cc2)CC1 [Example 72, 4-[4′-(4-acetylpiperazine-1-yl)biphenyl-3-yl]-2-[(2E)-2-(aminomethyl)-3-fluoroprop-2-en-1-yl]-2,4-dihydro-3H-1,2,4-triazol-3-one hydrochloride]
